Assay results: patent US9034882B2, “Inhibitors of human immunodeficiency virus replication” (priority 2012, dated 2015)
Where two headings read alike, the source gives them in different places.

System: recombinant NL-Rluc virus
Assay: Inhibition of HIV replication (NL-RLuc luciferase reporter virus in MT-2 cells)
Assay type: cell-based
Conditions: Human immunodeficiency virus 1, MT2, 120 h

SMILES	EC50 (read-out: Activity) [µM]	EC50 (read-out: EC50 μM) [µM]
Cc1nc2cc(-c3ccccc3)nn2c(N2CCC(F)CC2)c1C(OC(C)(C)C)C(=O)O (centres unmarked) [Example 12]	> 1	
Cc1nc2cc(-c3cccc(Oc4ccccc4)n3)nn2c(N2CCC(C)(C)CC2)c1[C@H](OC(C)(C)C)C(=O)O [Example 68, (S)-2-(tert-Butoxy)-2-(7-(4,4-dimethylpiperidin-1-yl)-5-methyl-2-(6-phenoxypyridin-2-yl)pyrazolo[1,5-a]pyrimidin-6-yl)acetic acid]	0.1 to 1	
Cc1nc2cc(-c3cccc(-c4ccccc4)c3)nn2c(N2[C@@H]3CCC[C@H]2CC3)c1[C@H](OC(C)(C)C)C(=O)O [Example 43, (S)-2-(2-([1,1′-Biphenyl]-3-yl)-7-((1R,5S)-8-azabicyclo[3.2.1]octan-8-yl)-5-methylpyrazolo[1,5-a]pyrimidin-6-yl)-2-(tert-butoxy)acetic acid]	0.1 to 1	0.78
Cc1nc2cc(-c3cccc(-c4ccccc4)c3)nn2c(N2C3CCCC2COC3)c1[C@H](OC(C)(C)C)C(=O)O [Example 48, (2S)-2-(2-([1,1′-Biphenyl]-3-yl)-7-(3-oxa-9-azabicyclo[3.3.1]nonan-9-yl)-5-methylpyrazolo[1,5-a]pyrimidin-6-yl)-2-(tert-butoxy)acetic acid]	> 1	
Cc1nc2cc(-c3cccc(OCc4ccccc4)c3)nn2c(N2CCC(C)CC2)c1C(OC(C)(C)C)C(=O)O (centres unmarked) [Example 31, 2-(2-(3-(benzyloxy)phenyl)-5-methyl-7-(4-methylpiperidin-1-yl)pyrazolo[1,5-a]pyrimidin-6-yl)20(tert-butoxy)acetic acid]	< 0.1	
Cc1nc2cc(-c3cccc(-c4ccccc4)c3)nn2c(N2C3CCC2CN(C)C3)c1[C@H](OC(C)(C)C)C(=O)O [Example 50, (S)-2-(2-([1,1′-Biphenyl]-3-yl)-5-methyl-7-((1R,5S)-3-methyl-3,8-diazabicyclo[3.2.4]octan-8-yl)pyrazolo[1,5-a]pyrimidin-6-yl)-2-(tert-butoxy)acetic acid]	> 1	3.23
Cc1nc2cc(-c3ccccc3)nn2c(N2CCCC2C(C)C)c1C(OC(C)(C)C)C(=O)O (centres unmarked) [Example 25]	> 1	
Cc1nc2cc(-c3cccc(OCc4ccccc4)n3)nn2c(N2CCC(C)(C)CC2)c1[C@H](OC(C)(C)C)C(=O)O [Example 69, (S)-2-(2-(6-(Benzyloxy)pyridin-2-yl)-7-(4,4-dimethylpiperidin-1-yl)-5-methylpyrazolo[1,5-a]pyrimidin-6-yl)-2-(tert-butoxy)acetic acid]	0.1 to 1	0.19
Cc1nc2cc(-c3ccccc3)nn2c(N2CCC3(CC2)CC3)c1[C@H](OC(C)(C)C)C(=O)O [Example 30, (S)-2-(tert-butoxy)-2-(5-methyl-2-phenyl-7-(6-azaspiro[2.5]octan-6-yl)pyrazolo[1,5-a]pyrimidin-6-yl)acetic acid]	0.1 to 1	
Cc1nc2cc(-c3ccccc3)nn2c(N2CCC(C)(C)C2)c1[C@H](OC(C)(C)C)C(=O)O [Example 28, (S)-2-(tert-butoxy)-2-(7-(3,3-dimethylpyrrolidin-1-yl)-5-methyl-2-phenylpyrazolo[1,5-a]pyrimidin-6-yl)acetic acid]	0.1 to 1	
Cc1nc2cc(-c3cccc(-c4ccccc4F)c3)nn2c(N2CCC3(CC2)CC3)c1[C@H](OC(C)(C)C)C(=O)O [Example 51, (S)-2-(tert-Butoxy)-2-(2-(2′-fluoro-[1,1′-biphenyl]-3-yl)-5-methyl-7-(6-azaspiro[2.5]octan-6-yl)pyrazolo[1,5-a]pyrimidin-6-yl)acetic acid]	0.1 to 1	
Cc1nc2cc(-c3ccccc3)nn2c(N2CCC(Br)CC2)c1C(OC(C)(C)C)C(=O)O (centres unmarked) [Example 22]	> 1	
Cc1nc2cc(-c3ccccc3)nn2c(N2CCC(C(=O)O)CC2)c1C(OC(C)(C)C)C(=O)O (centres unmarked) [Example 13]	> 1	
Cc1nc2nc(-c3ccccc3)nn2c(N2CC[C@H]3CCCC[C@H]3C2)c1C(OC(C)(C)C)C(=O)O (stereo partly drawn) [Example 39, 2-(tert-Butoxy)-2-(5-methyl-7-((4aR,8aR)-octahydroisoquinolin-2(1H)-yl)-2-phenyl-[1,2,4]triazolo[1,5-a]pyrimidin-6-yl)acetic acid]	0.1 to 1	
